Measured values reported in US8975234B2, “Anti-bacterial infection, inflammation, and leukemia composition and use thereof” (priority 2011, dated 2015).

Key:
[1] = system: human embryonic kidney cell line HEK 293; test: Cell viability assay (alamarBlue); assay type: cell-based; conditions: 40 μg/mL, 24 hours
Experimental: (§1) Cell viability was measured using alamarBlue. For cell viability assays, human embryonic kidney cell line HEK 293 and human hepatoma cell line Hep G2 were plated 180 μL in each well on a 96-well plate (for HEK 293, at a density of about 10,000 cells/well; for Hep G2, at a density of about 7500 cells/well). The cells were grown overnight (16˜18 hours) and left to attach. After overnight incubation, 20 μL of Tellimagrandin II was added to give final concentrations of 0, 20, 30, 40 and 50 μg/mL. The cultures with 0 μg/mL Tellimagrandin II and without adding additional drug (medium only) were as controls. The cells are then incubated in a 5% CO2, 37° C. incubator for 24 hours. After 24 hours, 100 μL of alamarBlue was added to each well, and cultured in a 5% CO2, 37° C. incubator for 4 hours. Absorbance was monitored at 570 nm and 600 nm and cell viability was determined.

[2] = system: human hepatoma cell line Hep G2; test: Cell viability assay (alamarBlue); assay type: cell-based; conditions: 40 μg/mL, 24 hours
Experimental: as §1

K-562 cells = test: Western blotting of apoptosis and cell cycle proteins; assay type: cell-based, human; conditions: 40 and 50 μM, 48 hours
Experimental: A total of 3 mL cell solution at the concentration of 1×10^6K-562 cells per mL was cultured in 6 cm cell culture dish in an incubator supplied with 5% CO2 at 37° C. for 30 minutes so that cells could adapt to the environment. Tellimagrandin II solutions of different concentrations were added by order so that the final concentrations are 0, 40 and 50 μM, respectively. The solution was placed in incubator with 5% CO2 at 37° C. for 48 hours. After incubation, it was centrifuged at 1,000 rpm at 4° C. for 5 minutes and rinsed by PBS once. RIPA buffer solution containing protease inhibitors was added to decompose the cells.
The solution was rapidly frozen with liquid nitrogen and unfrozen for three times to ensure that cells had been broken by the physical damages. The solution was centrifuged at 15,000 rpm at 4° C. for 30 minutes; the supernatant containing total cell protein was collected. Protein concentrations were determined by BCA protein assay. Finally, equal amounts of protein samples (40 μg) were boiled in 1× loading buffer for 3 minutes to decompose protein into primary structure for further protein gel electrophoresis (or stored at −80° C.).
SDS-PAGE 10% or 12% was selected by the desired protein molecular weight in the protein gel electrophoresis (150 V, 17 mA for 2 hour and 5 minutes). The protein was transferred from the gel to PVDF membrane using wet transfer procedure (100 V, 300 mA for 30 minutes). The membrane was blocked at room temperature for one hour in Tris-buffered saline-Tween (TBS-T) buffer solution containing 2% Bovine serum albumin (BSA) to eliminate non-specifically binding.
PVDF membrane was probed with primary antibody diluted with by the recommended amount according the manufacture in 2% BSA-TBS-T buffer solution at 4° C. for 16 to 18 hours. After the interaction completed, TBS-T buffer solution was used to rinse out the non-specifically bound primary antibody. TBS-T buffer solution was changed every 10 minutes for three times in about 30 minutes. Then, specific secondary antibody was added for interaction at room temperature for one hour. TBS-T buffer solution was used to rinse out the non-specifically bound secondary antibody. TBS-T buffer solution was changed every 10 minutes for six times in about 60 minutes. ECL System (Enhanced chemiluminescence system) was used and film was exposed to light and developed. Finally qualitative analysis was performed. […] Protein related to cell cycle regulation includes G2/M checkpoint regulators, Cyclin B1 and Cdc-25C.

SMILES: O=C(OC1O[C@@H]2COC(=O)c3cc(O)c(O)c(O)c3-c3c(cc(O)c(O)c3O)C(=O)O[C@H]2[C@H](OC(=O)c2cc(O)c(O)c(O)c2)[C@H]1OC(=O)c1cc(O)c(O)c(O)c1)c1cc(O)c(O)c(O)c1 (stereo partly shown) [Tellimagrandin II]
- Cell viability [1]: at least 80%
- Cell viability [2]: at least 80%
- Caspase-8 (inactive form) (K-562 cells): decreases
- Caspase-9, Caspase-3, and Caspase-7 (K-562 cells): activation
- Cyclin B1 and Cdc-25C (non-phosphorylated) activity (K-562 cells): decreased
- PARP (K-562 cells): ultimate activation
- protein of anti-apoptosis Bcl-2 (K-562 cells): decrease
